Test results published in patent US20220387544A1, “NOVEL THERAPEUTIC USE” (Artios Pharma Limited, priority 2019, published 2022).
Entries after “also recorded” stand apart in the source; their conditions may differ.

Tests used:
Assay type in all cases: cell-based
[1] = system: DLD1 colon cancer cells; test: CRISPR-Cas9 KO synthetic lethality screen; conditions: compound at approximate EC20, 15 days, vs DMSO
Experimental: The CRISPR KO screen, sample preparation and data analysis were performed by Horizon Discovery using a CRISPR library against 1965 genes with 10 gRNA's per gene. DLD-1 colon cancer cells were grown in RPMI medium with 10% FBS, infected with the lentiviral library (each viral particle containing Cas9 and sgRNA), selected with puromycin for 2 weeks, and treated with compound B (EC17.1%) or DMSO for 15 days. Synthetic lethality scores were calculated by normalizing the sgRNA count from compound treated cells to DMSO treated control.
The synthetic lethal effect between Polθ inhibitor (Compound B) and knockout of any one of 1965 genes in DLD1 colon cancer cell line was assessed. A CRISPR KO screen was performed in DLD1 cells using compound B at an approximate EC20, using DMSO-exposed cells (the compound vehicle) as control. The quantity of cells containing each sgRNA was measured via next generation sequencing. (FIG. 5(a)) REV7 was in the Top 50 hits out of the […] genes screened, based on FDR score together with comparison to a validated synthetic lethal partner BRCA2. (b) Based on the log fold change, REV7 was in the top 25 hits. […] 7 out of 10 gRNA's were synthetic lethal with Polθ inhibition.

[2] = system: parental and C20orf196 KO SUM149 tumouroids; test: Tumouroid assay, parental vs C20orf196 KO SUM149
Experimental: (§1) Cells were seeded into a hydrogel containing 10% rat tail collagen (OcellO) in 384-well high content imaging microplates at varying densities to compensate for differential growth characteristics (Table 2).
(§2) 24 hours after seeding, test compounds and olaparib (Selleckchem) were added in an eight-point dose range with a one in three serial dilution (maximum concentration 12 μM for all compounds, except 30 μM compound A for REV7 KO cell experiments). Dimethyl sulfoxide (DMSO) and 1 μM staurosporine (Med Chem Express) treatments were included as negative and positive controls, respectively. All treatments were carried out in quadruplicate.
After seven or fourteen days of treatment for 20orf196 KO and REV7 KO experiments respectively, cells were fixed with 5× Fix & Stain solution (OcellO) for 16 hours at 4° C. to stain both the nuclei using Hoechst 33258 and the actin cytoskeleton using Rhodamine-Phalloidin. Cells were washed four times with phosphate-buffered saline (PBS), and plates were imaged and analysed using OcellO's three-dimensional image analysis software (Ominer). For each well, two channels of 16-bit image stacks were collected using an automated microscope system: Molecular Devices ImageXpress Micro XLS, equipped with a 4× magnification/0.2NA PlanApo objective. For each image slice (n=47), pixel size was 0.324 μm and step size in z-direction was 50 μm.
Parental or C20orf196 KO SUM149 cells were seeded into a collagen-containing hydrogel in 384-well plates and incubated overnight. The resulting tumouroids were treated with a serial dilution of Polθ inhibitor or olaparib for seven days, fixed, and stained to visualise DNA and F-actin. Plates were imaged, and tumouroid size was measured using OcellO's three-dimensional image analysis software.
(§3) Parental or C20orf196 KO SUM149 cells were seeded into a collagen-containing hydrogel in 384-well plates and incubated overnight. The resulting tumouroids were treated with a serial dilution of Polθ inhibitor or olaparib for seven days, fixed, and stained to visualise DNA and F-actin. Plates were imaged, and the number of nuclei per tumouroid was counted using OcellO's three-dimensional image analysis software.
as §3, with “with” for “with a serial dilution of”, “inhibitor, olaparib” for “inhibitor”, “control compound (at the concentrations indicated)” for “olaparib”, “fraction” for “number”, “without an associated actin cytoskeleton” for “per tumouroid”, “calculated” for “counted”

[3] = system: SUM149 Parental and C20orf196 KO SUM149 cells; test: Clonogenic survival assay (ICR), SUM149 C20ORF196 KO clones
Experimental: (§4) Clonogenic survival assays were performed as previously described (Edwards et al Nature (2008) 451, 1111-1115; Farmer et al Nature (2005) 434, 917-921). For measurement of sensitivity to Compound A inhibitor, exponentially growing cells were seeded in six-well plates at a concentration of 1000-2000 cells per well. For Compound A, cells were continuously exposed to the drug with media and drug replaced every 72 h. After 14 days, cells were fixed and stained with sulphorhodamine-B (Sigma) and colonies were counted. SFs were calculated and drug sensitivity curves plotted as previously described (Farmer et al Nature (2005) 434, 917-921).
(§5) Parental or C20orf196 KO SUM149 cells were seeded into 6 well plates and incubated overnight. The cells were then exposed to a serial dilution of Polθ inhibitor or olaparib for 14 days, fixed, and stained with sulphorhodamine B. The colonies in each well were counted and normalised survival data plotted to generate a dose-response curve, as described before.

[4] = system: Parental and REV7 KO SUM149 cells; test: Clonogenic survival assay (ICR), SUM149 REV7 KO clones; conditions: REV7 KO clones vs parental SUM149, 14 days
Experimental: as §4
as §5, with “REV7” for “C20orf196”, “treated with” for “exposed to”, “curve.” for “curve, as described before.”

[5] = system: parental and SHLD2 KO MDA-MB-436 cells; test: Colony formation assay, MDA-MB-436; conditions: SHLD2 KO vs parental MDA-MB-436 cells, colony solubilization protocol
Experimental: (§6) 1 mL of cells were seeded per well in a 24-well plate in triplicate and incubated overnight at 37° C. Cells were treated with a seven-point dose response curve with a one-in-three serial dilution of compound for the timepoints listed in Table 5. For MDA-MB-436 cells media was replenished every five days.
(§7) Cells were fixed with 70% ethanol for 20 minutes at room temperature with shaking. Cells were then stained with 0.04% Crystal Violet (Sigma Aldrich) for 20 minutes at room temperature with shaking. Cells were washed 6 times with water and air-dried overnight.
(§8) Plates were imaged using a Gelcount (Oxford Optronix), and colonies were counted using parameters optimized for each cell line. […] Colonies were solubilized using 10% acetic acid (VWR) for 30 minutes, absorbance at 595 nm was read using the Clariostar plate reader (BMG Labtech), and blank correction was applied. Relative Survival was calculated by normalization of compound treated wells to DMSO treated wells.
(§9) The effect of a DNA polymerase theta (Polθ) inhibitor (Compound A) and the PARP inhibitor olaparib on the survival of parental and SHLD2 deleted (SHLD2 KO) MDA-MB-436 cells was investigated by colony formation assay. Briefly, each population was seeded at low density, incubated with different concentrations of the compound and the relative survival normalized to untreated cells was measured with the colony solubilization protocol.

[6] = system: parental and REV7 KO 22Rv1 cells; test: Colony formation assay, 22Rv1; conditions: REV7 KO vs REV7 wild type parental 22Rv1 cells, 2 weeks
Experimental: as §6, §7
Plates were imaged using a Gelcount (Oxford Optronix), and colonies were counted using parameters optimized for each cell line. 22Rv1 viability curves were generated from the colony counts alone. MDA-MB-436 and […] viability curves were generated from solubilized colonies. Colonies were solubilized using 10% acetic acid (VWR) for 30 minutes, absorbance at 595 nm was read using the Clariostar plate reader (BMG Labtech), and blank correction was applied. Relative Survival was calculated by normalization of compound treated wells to DMSO treated wells.
The effect of a DNA polymerase theta (Polθ) inhibitor (Compound A) or the PARP inhibitor olaparib on the survival of parental (REV7 wild type) or REV7 deleted (REV7 KO) 22Rv1 cells was investigated in colony formation assays (CFA—see protocol above). […]

[7] = system: parental and REV7 KO SUM149 tumouroids; test: Tumouroid assay, parental vs REV7 KO SUM149; conditions: fourteen days treatment
Experimental: as §1, §2
After seven or fourteen days of treatment for 20orf196 KO and REV7 KO experiments respectively, cells were fixed with 5× Fix & Stain solution (OcellO) for 16 hours at 4° C. to stain both the nuclei using Hoechst 33258 and the actin cytoskeleton using Rhodamine-Phalloidin. Cells were washed four times with phosphate-buffered saline (PBS), and plates were imaged and analysed using OcellO's three-dimensional image analysis software (Ominer). […]
Parental or REV7 KO SUM149 cells were seeded into a collagen-containing hydrogel in 384-well plates and incubated overnight. […] Plates were imaged, and the fraction of nuclei without an associated actin cytoskeleton was calculated using OcellO's three-dimensional image analysis software.

[8] = system: parental and SHLD2 KO HCC1395 cells; test: Colony formation assay, HCC1395; conditions: SHLD2 KO vs parental HCC1395 cells, colony solubilisation protocol
Experimental: as §6, §7, §8
as §9, with “[…]” for “(Polθ)”, “HCC1395” for “MDA-MB-436”, “solubilisation” for “solubilization”

[9] = system: Shieldin-defective, PARPi-resistant SUM149 cells; test: Re-sensitisation to olaparib; conditions: deletion of C20orf196 or 53BP1 or expression of BRCA1 in SUM149; olaparib 1 μM 10 days
Experimental: For measurement of re-sensitisation to Olaparib, exponentially growing cells were exposed to Compound A for 48 hours. After, cells were seeded in 96-well plates at a concentration of 1000-2000 cells per well. 24 hours post-seeding, Olaparib treatment was initiated and cells were continuously exposed to the drug with media and drug replenished every 72 hours. After 10 days, cell viability was estimated using Cell-Titre Glo (Promega). SFs were calculated and drug sensitivity curves plotted as previously described (Farmer et al Nature (2005) 434, 917-921).
Briefly, parental SUM149 cells or derivatives with either BRCA1 restored or with genetic deletion of either C20orf196 or 53BP1 were treated with Compound A in a tissue culture flask for 48 hours. The cells were then washed before seeding at low density in 96 well plates. 24 hours post seeding, cells were incubated with either olaparib or DMSO for a further 10 days. The relative survival normalised to untreated cells was measured using Cell-Titre Glo.

[10] = in C20orf196 KO cells when compared with olaparib
[11] = C20orf196 KO vs parental SUM149 tumouroids, seven days treatment

SMILES | REV7 gRNA's synthetic lethal with Polθ inhibition, out of 10 [1] | position of REV7 among hits based on log fold change [1] | cell death [2, 10] | reduction in the number of nuclei per tumoroid [2, 10] | reduction in tumoroid size [2, 10] | sensitivity by reduction in number of colonies ([3]; C20orf196 KO clones vs parental SUM149, 14 days) | sensitivity of parental SUM149 cells ([3]; parental SUM149 (BRCA1 mutation), 14 days) | sensitivity by reduction in number of colonies [4] | sensitivity by relative survival [5] | sensitivity by relative survival (colonies) [6] | cell death (fraction of dead cells) [7] | sensitivity by relative survival [8] | resistance to olaparib [9] | cell death (fraction of dead cells) ([2]; C20orf196 KO vs parental SUM149 tumouroid cultures, seven days treatment) | sensitivity by reduction in number of nuclei per tumouroid [2, 11] | sensitivity by reduction in tumouroid size [2, 11]
Cc1cccc(N(C)C(=O)[C@@H]2C[C@H](O)CN2c2nc(C)cc(C(F)(F)F)c2C#N)c1 [Compound B, (2S,4S)-1-(3-cyano-6-methyl-4-(trifluoromethyl)pyridin-2-yl)-4-hydroxy-N-methyl-N-(m-tolyl)pyrrolidine-2-carboxamide] | 7 | ≤ 25 | significantly more cell death | greater reduction in the number of nuclei per tumoroid | greater reduction in tumoroid size |  |  |  |  |  |  |  |  |  |  | 
O=C(c1cc(Cc2n[nH]c(=O)c3ccccc23)ccc1F)N1CCN(C(=O)C2CC2)CC1 [olaparib, reference compound] |  |  |  |  |  | more resistant | hypersensitive | resistance; also recorded: more resistant | trend for increased resistance | still retain resistance | less cell death | significantly more resistant | induces resistance; also recorded: marked resistance | significantly less cell death | less sensitive | less sensitive
